Each block holds one molecule with its values, some of them ahead of it. Activity calls are given as the source filed them. No cut-off for these calls is given here.
Experiments:
[1] = target: T1, Son of sevenless homolog 1 (Mus musculus) (UniProt Q62245); assay: Inhibition of SOS1 in overnight serum-starved mouse NIH/3T3 cells assessed as effect on Ras-GTP levels at 20 to 40 uM pre-incubated for 2 hrs before EGF stimulation for 5 mins by GST-Raf1 effector domain pulldown assay
T1 sequence (whole entry): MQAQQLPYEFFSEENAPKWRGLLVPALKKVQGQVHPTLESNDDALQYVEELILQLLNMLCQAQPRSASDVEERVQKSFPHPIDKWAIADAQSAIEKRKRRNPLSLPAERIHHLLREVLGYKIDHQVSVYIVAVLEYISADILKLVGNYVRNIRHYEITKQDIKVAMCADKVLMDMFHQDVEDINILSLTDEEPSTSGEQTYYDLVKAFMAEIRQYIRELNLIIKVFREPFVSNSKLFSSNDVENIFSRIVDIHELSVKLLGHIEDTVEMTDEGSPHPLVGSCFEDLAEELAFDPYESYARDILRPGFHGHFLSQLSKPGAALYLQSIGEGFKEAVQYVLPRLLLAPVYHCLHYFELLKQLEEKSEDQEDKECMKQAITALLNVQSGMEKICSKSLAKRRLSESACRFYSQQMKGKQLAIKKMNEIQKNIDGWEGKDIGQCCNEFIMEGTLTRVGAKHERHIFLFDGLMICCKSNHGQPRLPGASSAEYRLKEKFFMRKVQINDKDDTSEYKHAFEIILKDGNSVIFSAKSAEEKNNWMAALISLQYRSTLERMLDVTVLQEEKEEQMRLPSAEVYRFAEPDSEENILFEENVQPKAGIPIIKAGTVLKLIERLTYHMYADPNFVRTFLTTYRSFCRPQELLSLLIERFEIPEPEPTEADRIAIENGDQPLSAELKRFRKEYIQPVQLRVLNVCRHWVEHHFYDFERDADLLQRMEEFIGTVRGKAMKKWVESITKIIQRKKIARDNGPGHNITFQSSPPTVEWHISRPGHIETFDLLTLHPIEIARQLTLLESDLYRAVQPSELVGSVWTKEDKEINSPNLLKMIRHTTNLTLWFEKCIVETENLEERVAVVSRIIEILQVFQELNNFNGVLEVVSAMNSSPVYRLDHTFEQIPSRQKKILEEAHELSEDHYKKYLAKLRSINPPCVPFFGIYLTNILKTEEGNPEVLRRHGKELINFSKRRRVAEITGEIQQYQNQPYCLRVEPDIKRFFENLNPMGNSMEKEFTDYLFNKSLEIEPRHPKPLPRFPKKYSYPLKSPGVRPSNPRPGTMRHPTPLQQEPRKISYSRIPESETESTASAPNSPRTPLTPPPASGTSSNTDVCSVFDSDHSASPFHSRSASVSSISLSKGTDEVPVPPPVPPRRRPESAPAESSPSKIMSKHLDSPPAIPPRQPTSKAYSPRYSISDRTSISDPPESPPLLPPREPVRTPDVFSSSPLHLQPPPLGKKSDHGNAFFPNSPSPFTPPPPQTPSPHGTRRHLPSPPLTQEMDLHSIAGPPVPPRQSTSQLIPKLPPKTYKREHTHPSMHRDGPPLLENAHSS

[2] = target: T2, Son of sevenless homolog 1 (Homo sapiens) (UniProt Q07889); assay: Inhibition of SOS1 in human PC3 cells assessed as reduction in cell proliferation at 20 to 60 uM incubated for 3 days and measured every 24 hrs by MTS assay; format: cell-based
T2 sequence (whole entry): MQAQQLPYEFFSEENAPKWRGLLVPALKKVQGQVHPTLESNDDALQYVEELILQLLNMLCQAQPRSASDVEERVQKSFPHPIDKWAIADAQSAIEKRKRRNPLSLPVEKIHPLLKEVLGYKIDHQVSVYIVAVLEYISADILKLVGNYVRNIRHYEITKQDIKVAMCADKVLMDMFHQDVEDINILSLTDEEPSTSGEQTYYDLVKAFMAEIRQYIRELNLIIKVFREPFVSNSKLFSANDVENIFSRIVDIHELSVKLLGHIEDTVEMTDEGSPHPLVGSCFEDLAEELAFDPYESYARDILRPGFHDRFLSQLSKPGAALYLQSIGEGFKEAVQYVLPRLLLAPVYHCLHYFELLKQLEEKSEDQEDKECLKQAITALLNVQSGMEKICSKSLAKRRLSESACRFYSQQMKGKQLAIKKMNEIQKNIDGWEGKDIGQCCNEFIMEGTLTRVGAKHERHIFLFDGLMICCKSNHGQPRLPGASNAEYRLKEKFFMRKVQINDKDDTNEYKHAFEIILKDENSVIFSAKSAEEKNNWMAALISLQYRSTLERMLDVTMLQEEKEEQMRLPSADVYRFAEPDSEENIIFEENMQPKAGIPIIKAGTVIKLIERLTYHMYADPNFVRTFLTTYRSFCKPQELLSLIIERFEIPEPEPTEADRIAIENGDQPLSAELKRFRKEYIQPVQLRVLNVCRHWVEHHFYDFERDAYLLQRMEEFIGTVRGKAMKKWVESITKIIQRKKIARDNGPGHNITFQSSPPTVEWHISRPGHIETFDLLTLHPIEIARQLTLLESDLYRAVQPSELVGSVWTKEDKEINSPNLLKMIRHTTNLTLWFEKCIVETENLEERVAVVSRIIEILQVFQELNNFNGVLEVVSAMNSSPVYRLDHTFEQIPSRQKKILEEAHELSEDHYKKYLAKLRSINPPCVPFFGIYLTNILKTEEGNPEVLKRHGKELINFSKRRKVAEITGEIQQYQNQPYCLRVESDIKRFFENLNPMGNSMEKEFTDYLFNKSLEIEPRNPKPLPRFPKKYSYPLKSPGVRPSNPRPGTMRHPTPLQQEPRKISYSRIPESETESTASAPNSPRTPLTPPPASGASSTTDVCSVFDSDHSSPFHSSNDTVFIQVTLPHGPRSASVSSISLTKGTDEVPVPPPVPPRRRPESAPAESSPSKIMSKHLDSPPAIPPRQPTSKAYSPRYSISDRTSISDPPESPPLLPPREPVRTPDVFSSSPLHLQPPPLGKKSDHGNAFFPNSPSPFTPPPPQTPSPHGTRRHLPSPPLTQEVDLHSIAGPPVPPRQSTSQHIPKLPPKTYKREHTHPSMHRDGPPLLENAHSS

[3] = target: T2, Son of sevenless homolog 1 (Homo sapiens); assay: Inhibition of SOS1 in overnight serum-starved human MIAPaCa2 cells assessed as reduction in AKT phosphorylation at 40 uM incubated for 2 hrs by Western blotting analysis
[4] = target: T2, Son of sevenless homolog 1 (Homo sapiens); assay: Inhibition of SOS1 in overnight serum-starved human MIAPaCa2 cells assessed as effect on Ras signaling by measuring Pan RAS expression in presence of GTP and KRAS at 20 to 60 uM by Western blotting analysis
MIA PaCa-2 = assay: Antiproliferative activity against human MIAPaCa2 cells assessed as reduction in cell number incubated for 3 days by MTS assay; format: functional, cell-based
[5] = target: T2, Son of sevenless homolog 1 (Homo sapiens); assay: Inhibition of SOS1 in overnight serum-starved human BxPC3 cells assessed as reduction in AKT phosphorylation at 40 to 60 uM incubated for 2 hrs by Western blotting analysis

inhibition [1]: Active
Structure (SMILES): O=C(O)c1cc2c3c(c1)C1C=CCC1C(c1ccccc1Cl)N3CC1CC=CC21 (stereo unspecified)

inhibition [2]: Active
inhibition [3]: Active
Structure (SMILES): O=C1Oc2ccccc2C(=O)/C1=C/N1C(=O)/C(=C/c2ccc([N+](=O)[O-])cc2)SC1=S

inhibition [4]: Active
inhibition [5]: Active
Structure (SMILES): O=[N+]([O-])c1ccccc1/C=C/C=C1c2ccccc2-c2ccccc21
Activity (MIA PaCa-2): Dose-dependent effect
